Key:
Experiment in all cases: relative viability (nuclei count vs DMSO), 5 days (fraction); higher = more cells survive
RU-SKI 43 + Trametinib = compound: CC[C@@H](C)CNCC(=O)N1CCC2=C([C@@H]1COC3=CC=CC(=C3)C)C=CS2 [RU-SKI 43] + CC(=O)Nc1cccc(-n2c(=O)n(C3CC3)c(=O)c3c(Nc4ccc(I)cc4F)n(C)c(=O)c(C)c32)c1 [Trametinib] (partner 0.02 µM)
Summary of the method: (§1)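 Relative viability divides the nuclei count in treated wells by that in vehicle wells. Lung cancer cell lines were seeded in 1536-well plates, dosed by pin tool the next day, and fixed and stained after 5 days in one step with final 0.05% Triton X-100, 1% formaldehyde and 1 ug/ml Hoechst. Dosing was a single drug or a fixed anchor-drug dose plus five library-drug doses (not always all listed) in √10 steps, and values are medians of duplicate plates imaged at 4×.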

RU-SKI 43 + Pemetrexed = compound: CC[C@@H](C)CNCC(=O)N1CCC2=C([C@@H]1COC3=CC=CC(=C3)C)C=CS2 [RU-SKI 43] + Nc1nc2[nH]cc(CCc3ccc(C(=O)N[C@@H](CCC(=O)O)C(=O)O)cc3)c2c(=O)[nH]1 [Pemetrexed] (partner 0.2 µM)
Summary of the method: as §1

Irinotecan + Luminespib = compound: CCc1c2c(nc3ccc(OC(=O)N4CCC(N5CCCCC5)CC4)cc13)-c1cc3c(c(=O)n1C2)COC(=O)[C@]3(O)CC [Irinotecan] + CCNC(=O)c1noc(-c2cc(C(C)C)c(O)cc2O)c1-c1ccc(CN2CCOCC2)cc1 [Luminespib] (partner 0.01 µM)
Summary of the method: as §1

Irinotecan + AZD7762 = compound: CCc1c2c(nc3ccc(OC(=O)N4CCC(N5CCCCC5)CC4)cc13)-c1cc3c(c(=O)n1C2)COC(=O)[C@]3(O)CC [Irinotecan] + NC(=O)Nc1cc(-c2cccc(F)c2)sc1C(=O)N[C@H]1CCCNC1 [AZD7762] (partner 0.2 µM)
Summary of the method: as §1

| Cell Line | relative viability (RU-SKI 43 + Trametinib; first compound 0.1 µM) | relative viability (RU-SKI 43 + Trametinib; first compound 0.3162 µM) | relative viability (RU-SKI 43 + Trametinib; first compound 1 µM) | relative viability (RU-SKI 43 + Trametinib; first compound 3.162 µM) | relative viability (RU-SKI 43 + Trametinib; first compound 10 µM) | relative viability (RU-SKI 43 + Pemetrexed; first compound 0.1 µM) | relative viability (RU-SKI 43 + Pemetrexed; first compound 0.3162 µM) | relative viability (RU-SKI 43 + Pemetrexed; first compound 1 µM) | relative viability (RU-SKI 43 + Pemetrexed; first compound 3.162 µM) | relative viability (RU-SKI 43 + Pemetrexed; first compound 10 µM) | relative viability (Irinotecan + Luminespib; first compound 0.6325 µM) | relative viability (Irinotecan + Luminespib; first compound 2 µM) | relative viability (Irinotecan + Luminespib; first compound 6.325 µM) | relative viability (Irinotecan + Luminespib; first compound 20 µM) | relative viability (Irinotecan + AZD7762; first compound 0.6325 µM) | relative viability (Irinotecan + AZD7762; first compound 2 µM) | relative viability (Irinotecan + AZD7762; first compound 6.325 µM) | relative viability (Irinotecan + AZD7762; first compound 20 µM) |
| --- | --- | --- | --- | --- | --- | --- | --- | --- | --- | --- | --- | --- | --- | --- | --- | --- | --- | --- |
| NCI-H1437 | 0.492 | 0.555 | 0.59 | 0.527 | 0.363 | 0.318 | 0.352 | 0.328 | 0.306 | 0.295 | 0.955 | 0.723 | 0.4 | 0.338 | 0.891 | 0.557 | 0.261 | 0.174 |
| HARA | 0.507 | 0.806 | 1.02 | 0.936 | 0.561 | 0.265 | 0.264 | 0.259 | 0.277 | 0.254 | 0.0995 | 0.29 | 0.147 | 0.111 | 0.2 | 0.278 | 0.154 | 0.255 |
| LOU-NH91 | 0.774 | 0.749 | 0.802 | 0.825 | 0.808 | 0.399 | 0.345 | 0.456 | 0.389 | 0.378 | 0.371 | 0.323 | 0.301 | 0.28 | 0.719 | 0.756 | 0.421 | 0.156 |
| NCI-H838 | 0.491 | 0.645 | 0.471 | 0.529 | 0.505 | 0.256 | 0.248 | 0.251 | 0.251 | 0.249 | 0.23 | 0.262 | 0.213 | 0.266 | 0.887 | 0.787 | 0.749 | 0.645 |
| NCI-H1975 | 0.311 | 0.351 | 0.355 | 0.296 | 0.257 | 0.311 | 0.298 | 0.341 | 0.327 | 0.292 | 0.107 | 0.201 | 0.175 | 0.235 | 0.826 | 0.7 | 0.527 | 0.322 |
| NCI-H2170 | 0.975 | 1.39 | 1.04 | 0.908 | 0.946 | 0.251 | 0.297 | 0.262 | 0.275 | 0.243 | 0.601 | 0.498 | 0.168 | 0.188 | 0.649 | 0.562 | 0.173 | 0.133 |
| NCI-H647 | 0.445 | 0.57 | 0.472 | 0.521 | 0.439 | 0.169 | 0.178 | 0.199 | 0.169 | 0.169 | 0.152 | 0.212 | 0.157 | 0.119 | 0.294 | 0.273 | 0.131 | 0.2 |
| A-427 | 0.718 | 0.694 | 0.788 | 0.744 | 0.706 | 1.02 | 0.948 | 1.15 | 1.04 | 0.995 | – | 0.574 | 0.306 | 0.166 | 0.712 | 0.642 | 0.315 | 0.18 |
| CAL-12T | 0.306 | 0.242 | 0.316 | 0.259 | 0.351 | 1.16 | 1.36 | 1.39 | 1.2 | 1.22 | – | 0.695 | 0.2 | 0.253 | 0.676 | 0.564 | 0.453 | 0.29 |
